Measurements from patent publication US10682317B2 (ZOGENIX INTERNATIONAL LIMITED, priority 2017, dated 2020).
Converted amounts (≈) assume the structure as drawn. “And” between values parts separate entries of the source, which are not always exact repeats. Equal entries are not always repeated. Structures can show the parent of a compound that is named as a salt. Where two headings read alike, the source gives them in different places.

Key:
[1] = system: food intake / carbohydrate craving; conditions: cited from earlier work
[2] = Paraben preservative degradation (hydrolysis); format: physicochemical; conditions: pH 6
Description: The pH of the drug product formulation was optimized to minimize the preservative degradation.
Like methylparaben, ethylparaben degrades in solution by hydrolysis. The rate increases at higher pH. The pH of the drug product formulation was optimized to minimize the preservative degradation while maintaining adequate solubility, and no significant increase in the preservatives degradation product has been observed in long-term stability studies.

[3] = biological target: T1, vesicular glutamate transporter, VGLUT2 (Homo sapiens, UniProt Q9P2U8); conditions: concentrations expected during the ketogenic diet; cited from earlier work
T1 sequence (Q9P2U8 1-582): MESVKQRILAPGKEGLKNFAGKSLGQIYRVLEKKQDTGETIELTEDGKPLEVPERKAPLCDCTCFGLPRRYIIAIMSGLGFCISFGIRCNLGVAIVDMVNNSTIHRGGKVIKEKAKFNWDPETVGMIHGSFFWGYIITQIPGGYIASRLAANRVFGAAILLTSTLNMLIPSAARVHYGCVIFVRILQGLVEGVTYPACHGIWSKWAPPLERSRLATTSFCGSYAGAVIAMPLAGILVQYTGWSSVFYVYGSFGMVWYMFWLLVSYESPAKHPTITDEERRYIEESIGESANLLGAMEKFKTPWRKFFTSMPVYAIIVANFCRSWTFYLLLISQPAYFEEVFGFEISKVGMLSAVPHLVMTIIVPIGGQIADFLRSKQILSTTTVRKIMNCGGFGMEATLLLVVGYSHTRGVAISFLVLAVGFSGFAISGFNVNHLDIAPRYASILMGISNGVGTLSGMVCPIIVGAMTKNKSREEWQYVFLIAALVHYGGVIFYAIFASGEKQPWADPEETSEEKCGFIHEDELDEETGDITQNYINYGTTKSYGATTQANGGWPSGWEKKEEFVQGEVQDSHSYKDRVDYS

[4] = cited from earlier work
[5] = Aqueous solubility of the drug substance; conditions: aqueous solution
[6] = pH 6.8
[7] = Particle size of drug substance batches; format: physicochemical
Description: Fenfluramine hydrochloride drug substance is non-micronized. The range of particle size parameters obtained from five GMP batches (two clinical batches manufactured by Onyx, and three registration batches manufactured by Aptuit) is listed in Table 1.

[8] = Buffer system selection: stability of pH prototypes; format: physicochemical; conditions: pH range of 4.5 to 6.5, citrate or citrate-phosphate buffer prototypes
Protocol: A pH range of 4.5 to 6.5 was investigated during formulation development studies. Various prototypes were prepared with either citrate buffer or citrate-phosphate buffer, depending on target pH. […] Based on initial stability data, a target pH of 5.0 (range: 4.5-5.5) was selected because it minimized the preservatives degradation at long-term and accelerated stability conditions without causing precipitation in product stored at 2-8° C. The buffer components in the drug product formulation are tripotassium citrate and citric acid. Potassium citrate was used instead of sodium citrate to avoid common ion effect with the paraben sodium salts, which may have contributed to precipitation in prototypes containing sodium citrate.

[9] = Solid state stability and polymorph screening; format: physicochemical
seizures [10] = test: Treatment of seizures in epilepsy patients; format: in vivo, human
Description: Clemens, in Epilepsy Research (1988) 2:340-343 reported a study on a child suffering pattern sensitivity-induced seizures that were resistant to anticonvulsive treatment.
This is confirmed, for example, in the article by Ceulemans et al., Epilepsia (2012) 53(7):1131-1139, the contents of which are incorporated herein.
(§1) The overall anorectic effect of dexfenfluramine is greater than that of […] in experimental animals (Garratini et al. 1988) and humans (Goodall et al. 1992). […] Put differently, a preferred dose is not more than about 30 mg/day, and less than about 1 to about 0.01 mg/kg/day.

[11] = system: food intake / carbohydrate craving; test: Anorectic effect, food intake and carbohydrate craving; format: in vivo, human; conditions: surprisingly low dose, compared to 60-120 mg/day for obesity
Protocol: as §1

[12] = system: cardiac fibrosis and pulmonary hypertension; conditions: marketed use for obesity; cited from earlier work
seizures [13] = conditions: cited from earlier work
[14] = clinical and registration batches 1-5, hydrochloride

Compound: CCN[C@@H](C)Cc1cccc(C(F)(F)F)c1 (racemic) [Dexfenfluramine]
- carbohydrate craving ([1]; adults, 30 mg/day): reduction in carbohydrate craving
- suppression of food intake ([1]; dose of 30 mg): suppressed food intake to the same degree as fenfluramine 60 mg
- anorectic potency vs racemic mixture fenfluramine ([1]; group of 16 human subjects): twice the anorectic potency

Compound: COC(=O)c1ccc(O)cc1.[Na] [Methylparaben sodium, sodium methyl p-hydroxybenzoate]
- stability against hydrolysis [2]: acceptable stability below pH 6

Compound: CC(=O)CC(=O)O [acetoacetate]
- glutamate transport by VGLUT2 [3]: inhibited

Compound: CCOC(=O)c1ccc(O)cc1 [ethylparaben, ethyl 4-hydroxybenzoic acid]
- solubility of the free acid in water ([4]; 20° C.): 0.07%
- solubility of the free acid in water ([4]; 25° C.): 0.08%
- solubility [4]: 0.8 mg/mL (≈ 4.81 mM)

Compound: CCNC(C)Cc1cccc(C(F)(F)F)c1 (stereo not shown) [fenfluramine hydrochloride]
- solubility ([5]; 25 °C, pH 1.7, simulated gastric fluid): ~25 mg/mL
- solubility ([5]; 25 °C, pH 6.7, aqueous buffer): > 50 mg/mL
- solubility ([5]; 37 °C, aqueous buffer): 54 to 96 mg/mL
- time for which the solution is stable [6]: at least 6 months
- D50 [7, 14]: 6.99 μm and 6.79 μm and 8.92 μm and 8.20 μm and 6.16 μm
- D90 [7, 14]: 23.01 μm and 26.25 μm and 32.08 μm and 27.04 μm and 18.96 μm
- median particle size (D50) ([7]; experimental batch): 60 μm
- ninetieth percentile (D90) ([7]; experimental batch): 250 μm
- time needed for complete dissolution in the formulation vehicle ([7]; experimental batch vs micronized portions of the same batch): no difference was observed in the time needed for complete dissolution
- stability over pH range [8]: stable over the entire range of pH
- polymorphs observed ([9]; polymorph screening study, accelerated and long-term stability studies): no other polymorphs have been observed
- solid state stability ([9]; solid state): chemically and physically stable in the solid state

Compound: CCNC(C)Cc1cccc(C(F)(F)F)c1 (stereo not shown) [fenfluramine, 3-trifluoromethyl-N-ethylamphetamine]
- effect on seizures (seizures [10]; patients with Dravet syndrome, Lennox-Gastaut syndrome, or Doose syndrome): reduce or eliminate seizures
- efficacy of low doses on seizures (seizures [10]; surprisingly low doses, Dravet, Lennox-Gastaut or Doose syndrome patients): efficacious
- appetite and craving for carbohydrates [11]: effective in reducing appetite and craving for carbohydrates
- adverse effects associated with use [12]: associated with the onset of cardiac fibrosis and pulmonary hypertension
- effect on seizures (seizures [13]; child with pattern sensitivity-induced seizures resistant to anticonvulsive treatment): successfully terminated these self-induced seizures
- number of seizures (seizures [13]; children with refractory epilepsy, 0.5 to 1 mg/kg/day): reduction in the number of seizures
- response of seizures (seizures [13]; four cases of self-induced photosensitive seizures): responded to treatment
- therapeutic benefit (seizures [13]; patients with intractable epilepsy): appeared to be of therapeutic benefit
